We go through 23 molecules from patent US20080200454A1, “CARBON-LINKED TETRAHYDRO-PYRAZOLO-PYRIDINE MODULATORS OF CATHEPSIN S” (priority 2007, published 2008).

The IC50 is the concentration that inhibits the measured activity by half.

Sequence of Recombinant human cathepsin S (CatS) (P25774 115-331): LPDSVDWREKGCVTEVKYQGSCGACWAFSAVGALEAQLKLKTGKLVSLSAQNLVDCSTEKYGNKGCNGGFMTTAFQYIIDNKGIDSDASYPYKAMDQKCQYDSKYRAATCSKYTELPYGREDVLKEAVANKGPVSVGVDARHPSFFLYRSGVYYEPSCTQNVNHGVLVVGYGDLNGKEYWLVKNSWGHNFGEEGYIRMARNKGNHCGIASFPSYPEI

One assay addresses Recombinant human cathepsin S (CatS) (Homo sapiens, UniProt P25774). Put plainly: Recombinant human cathepsin S (CatS) inhibition assay, fluorogenic substrate Z-Valine-Valine-Arginine-AMC.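 Further: Baculovirus-expressed CatS in pH 5.0 sodium acetate buffer with DTT and NaCl, fluorescence read each minute over 20 min, inhibition derived from rate slope.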
Conditions: not given
On to `NC(=O)C(=O)N1CCc2c(c(-c3ccc(Cl)c(C#Cc4ccc(CNCc5ccc(Cl)cc5)cc4)c3)nn2CCCN2CCN(c3ccccc3)CC2)C1` [Example 429, 2-{3-(4-Chloro-3-{[4-({[(4-chlorophenyl)methyl]amino}methyl)phenyl]ethynyl}phenyl)-1-[3-(4-phenylpiperazin-1-yl)propyl]-1,4,6,7-tetrahydro-5H-pyrazolo[4,3-c]pyridin-5-yl}-2-oxoacetamide], for which the IC50 turned out to be 20 nM.

On to `CS(=O)(=O)N1CCc2c(c(-c3ccc(Cl)c(C#CCCO)c3)nn2CCCN2CCOCC2)C1` [Example 299, 4-{2-Chloro-5-[5-(methylsulfonyl)-1-(3-morpholin-4-ylpropyl)-4,5,6,7-tetrahydro-1H-pyrazolo[4,3-c]pyridin-3-yl]phenyl}but-3-yn-1-ol], for which the IC50 was determined as 4800 nM.

For `CN(Cc1ccccc1)Cc1cccc(CCc2cc(-c3nn(CCCN4CCOCC4)c4c3CN(S(C)(=O)=O)CC4)ccc2Cl)c1` [Example 530, 1-[3-(2-{2-Chloro-5-[5-(methylsulfonyl)-1-(3-morpholin-4-ylpropyl)-4,5,6,7-tetrahydro-1H-pyrazolo[4,3-c]pyridin-3-yl]phenyl}ethyl)phenyl]-N-methyl-N-(phenylmethyl)methanamine], the IC50 stood at 1330 nM.

As for `NC(=O)N1CCc2c(c(-c3ccc(Cl)c(C#Cc4ccc(Cl)cc4)c3)nn2C[C@@H](O)CN2CCC(C3CCNCC3)CC2)C1` [Example 238, 1-[(2S)-3-(4,4′-Bipiperidin-1-yl)-2-hydroxypropyl]-3-{4-chloro-3-[(4-chlorophenyl)ethynyl]phenyl}-1,4,6,7-tetrahydro-5H-pyrazolo[4,3-c]pyridine-5-carboxamide], the IC50 came to 3 nM.

`NC(=O)N1CCc2c(c(-c3ccc(Cl)c(CCc4ccc(Cl)cc4)c3)nn2C[C@@H](O)CN2CCC(C3CCNCC3)CC2)C1` [Example 479, 1-[(2S)-3-(4,4′-Bipiperidin-1-yl)-2-hydroxypropyl]-3-{4-chloro-3-[2-(4-chlorophenyl)ethyl]phenyl}-1,4,6,7-tetrahydro-5H-pyrazolo[4,3-c]pyridine-5-carboxamide]: the IC50 was determined as 20 nM.

On to `CS(=O)(=O)NCCCc1cc(-c2nn(CCCN3CCOCC3)c3c2CN(S(C)(=O)=O)CC3)ccc1Cl` [Example 80, N-(3-{2-Chloro-5-[5-methanesulfonyl-1-(3-morpholin-4-yl-propyl)-4,5,6,7-tetrahydro-1H-pyrazolo[4,3-c]pyridin-3-yl]-phenyl}-propyl)-methanesulfonamide], for which the IC50 is 9930 nM.

Take `CS(=O)(=O)N1CCc2c(c(-c3ccc(Cl)c(CCc4ccc(Cl)cc4)c3)nn2CCCN2CCOCC2)C1` [Example 57, 3-{4-Chloro-3-[2-(4-chloro-phenyl)-ethyl]-phenyl}-5-methanesulfonyl-1-(3-morpholin-4-yl-propyl)-4,5,6,7-tetrahydro-1H-pyrazolo[4,3-c]pyridine]: the IC50 was found to be 230 nM.

In the case of `NC(=O)C(=O)N1CCc2c(c(-c3ccc(Cl)c(C#Cc4ccc(Cl)c(CN5CCOCC5)c4)c3)nn2CCCN2CCCCC2)C1` [Example 601, 2-[3-(4-Chloro-3-{[4-chloro-3-(morpholin-4-ylmethyl)phenyl]ethynyl}phenyl)-1-(3-piperidin-1-ylpropyl)-1,4,6,7-tetrahydro-5H-pyrazolo[4,3-c]pyridin-5-yl]-2-oxoacetamide], the 50% inhibitory concentration (IC50) came out at 30 nM.

As for `CS(=O)(=O)N1CCc2c(c(-c3ccc(Cl)c(C#Cc4ccc(CNCc5ccc(Cl)cc5)cc4)c3)nn2CCCN2C[C@@H]3C[C@H]2CO3)C1` [Example 420, 1-[4-({2-Chloro-5-[5-(methylsulfonyl)-1-{3-[(1S,4S)-2-oxa-5-azabicyclo[2.2.1]hept-5-yl]propyl}-4,5,6,7-tetrahydro-1H-pyrazolo[4,3-c]pyridin-3-yl]phenyl}ethynyl)phenyl]-N-[(4-chlorophenyl)methyl]methanamine], the IC50 was found to be 100 nM.

Regarding `C[C@@H]1COCCN1CCCn1nc(-c2ccc(Cl)c(C#Cc3ccc(CNCc4ccc(Cl)cc4)cc3)c2)c2c1CCN(S(C)(=O)=O)C2` [Example 536, 1-[4-({2-Chloro-5-[1-{3-[(3R)-3-methylmorpholin-4-yl]propyl}-5-(methylsulfonyl)-4,5,6,7-tetrahydro-1H-pyrazolo[4,3-c]pyridin-3-yl]phenyl}ethynyl)phenyl]-N-[(4-chlorophenyl)methyl]methanamine], the IC50 worked out at 200 nM.

In the case of `CC(C)(C)OC(=O)NCc1ccc(C#Cc2cc(-c3nn(CCCN4CCOCC4)c4c3CN(S(C)(=O)=O)CC4)ccc2Cl)cc1` [Example 40, (4-{2-Chloro-5-[5-methanesulfonyl-1-(3-morpholin-4-yl-propyl)-4,5,6,7-tetrahydro-1H-pyrazolo[4,3-c]pyridin-3-yl]-phenylethynyl}-benzyl)-carbamic acid tert-butyl ester], the IC50 was determined as 410 nM.

Regarding `NC(=O)N1CCc2c(c(-c3ccc(Cl)c(C#Cc4ccc(Cl)c(C(=O)NC[C@@H]5CCCN5)c4)c3)nn2CCCN2CCSCC2)C1` [Example 558, 3-{4-Chloro-3-[(4-chloro-3-{[(2S)-pyrrolidin-2-ylmethyl]carbamoyl}phenyl)ethynyl]phenyl}-1-(3-thiomorpholin-4-ylpropyl)-1,4,6,7-tetrahydro-5H-pyrazolo[4,3-c]pyridine-5-carboxamide], the concentration for half-maximal inhibition (IC50) is 30 nM.

`CS(=O)(=O)N1CCc2c(c(-c3ccc(Cl)c(CCc4ccc5[nH]ccc5c4)c3)nn2CCCN2CCOCC2)C1` [Example 2, 3-{4-Chloro-3-[2-(1H-indol-5-yl)-ethyl]-phenyl}-5-methanesulfonyl-1-(3-morpholin-4-yl-propyl)-4,5,6,7-tetrahydro-1H-pyrazolo[4,3-c]pyridine]: the IC50 was found to be 350 nM.

Turning to `CC(C)(C)OC(=O)N1CCC(C2CCN(C[C@H](O)Cn3nc(-c4ccc(Cl)c(C#CC5CCCCC5)c4)c4c3CCN(S(C)(=O)=O)C4)CC2)CC1` [Example 233, 1,1-Dimethylethyl 1′-[(2S)-3-{3-[4-chloro-3-(cyclohexylethynyl)phenyl]-5-(methylsulfonyl)-4,5,6,7-tetrahydro-1H-pyrazolo[4,3-c]pyridin-1-yl}-2-hydroxypropyl]-4,4′-bipiperidine-1-carboxylate], the IC50 came to 7920 nM.

Still in this assay, the particulars now being: CatS IC50.
Regarding `CS(=O)(=O)N1CCc2c(c(-c3ccc(Cl)c(C#Cc4ccc(CNCc5ccc(Cl)cc5)cc4)c3)nn2CCCN2CCS(=O)(=O)CC2)C1` [Example 398, 1-{4-[(2-Chloro-5-{1-[3-(1,1-dioxidothiomorpholin-4-yl)propyl]-5-(methylsulfonyl)-4,5,6,7-tetrahydro-1H-pyrazolo[4,3-c]pyridin-3-yl}phenyl)ethynyl]phenyl}-N-[(4-chlorophenyl)methyl]methanamine], the concentration for half-maximal inhibition (IC50) was determined as 380 nM.

With `CS(=O)(=O)N1CCc2c(c(-c3ccc(Cl)c(C#Cc4cncc(CNCc5ccc(Cl)cc5)c4)c3)nn2CCCN2CCOCC2)C1` [Example 428, 1-[5-({2-Chloro-5-[5-(methylsulfonyl)-1-(3-morpholin-4-ylpropyl)-4,5,6,7-tetrahydro-1H-pyrazolo[4,3-c]pyridin-3-yl]phenyl}ethynyl)pyridin-3-yl]-N-[(4-chlorophenyl)methyl]methanamine], the IC50 was determined as 3750 nM.

Take `O=C(C1CCCO1)N1CCc2c(c(-c3ccc(Cl)c(C#Cc4ccc(Cl)cc4)c3)nn2CCCN2CCOCC2)C1` (centres unmarked) [Example 141, [3-[4-Chloro-3-(4-chloro-phenylethynyl)-phenyl]-1-(3-morpholin-4-yl-propyl)-1,4,6,7-tetrahydro-pyrazolo[4,3-c]pyridin-5-yl]-(tetrahydro-furan-2-yl)-methanone]: the IC50 was determined as 310 nM.

As to `CNCCCNC(=O)c1cc(C#Cc2cc(-c3nn(CCCN4CCSCC4)c4c3CN(C(=O)C(N)=O)CC4)ccc2Cl)ccc1Cl` [Example 565, 5-[(5-{5-[Amino(oxo)acetyl]-1-(3-thiomorpholin-4-ylpropyl)-4,5,6,7-tetrahydro-1H-pyrazolo[4,3-c]pyridin-3-yl}-2-chlorophenyl)ethynyl]-2-chloro-N-[3-(methylamino)propyl]benzamide], the half-inhibitory concentration (IC50) was found to be 20 nM.

As for `C[C@H]1COCCN1CCCn1nc(-c2ccc(Cl)c(C#Cc3ccc(CO)cc3)c2)c2c1CCN(C(=O)C(N)=O)C2` [Example 618, 2-[3-(4-Chloro-3-{[4-(hydroxymethyl)phenyl]ethynyl}phenyl)-1-{3-[(3S)-3-methylmorpholin-4-yl]propyl}-1,4,6,7-tetrahydro-5H-pyrazolo[4,3-c]pyridin-5-yl]-2-oxoacetamide], the 50% inhibitory concentration (IC50) came out at 20 nM.

For the molecule `C[C@H]1COCCN1CCCn1nc(-c2ccc(Cl)c(C#Cc3ccc(Cl)c(C(=O)N4CCCC4)c3)c2)c2c1CCN(C(=O)C(N)=O)C2` [Example 573, 2-[3-(4-Chloro-3-{[4-chloro-3-(pyrrolidin-1-ylcarbonyl)phenyl]ethynyl}phenyl)-1-{3-[(3S)-3-methylmorpholin-4-yl]propyl}-1,4,6,7-tetrahydro-5H-pyrazolo[4,3-c]pyridin-5-yl]-2-oxoacetamide], the half-maximal inhibitory concentration (IC50) was determined as 190 nM.

With `C[C@H]1COCCN1CCCn1nc(-c2ccc(Cl)c(C#Cc3ccc(Cl)c(C(=O)NCC4CNC4)c3)c2)c2c1CCN(C(=O)C(N)=O)C2` [Example 598, 5-{[5-(5-[Amino(oxo)acetyl]-1-{3-[(3S)-3-methylmorpholin-4-yl]propyl}-4,5,6,7-tetrahydro-1H-pyrazolo[4,3-c]pyridin-3-yl)-2-chlorophenyl]ethynyl}-N-(azetidin-3-ylmethyl)-2-chlorobenzamide], the IC50 came to 30 nM.

The same assay, now with this note: CatS IC50, Table 2; average of results obtained.
In the case of `CS(=O)(=O)N1CCc2c(c(-c3ccc(Cl)c(C#Cc4ccccc4C(F)(F)F)c3)nn2CCCN2CCOCC2)C1` [Example 34, 3-[4-Chloro-3-(2-trifluoromethyl-phenylethynyl)-phenyl]-5-methanesulfonyl-1-(3-morpholin-4-yl-propyl)-4,5,6,7-tetrahydro-1H-pyrazolo[4,3-c]pyridine], the IC50 turned out to be 870 nM.

Take `O=C(CF)N1CCc2c(c(-c3ccc(Cl)c(C#Cc4ccc(Cl)cc4)c3)nn2CCCN2CCOCC2)C1` [Example 140, 1-[3-[4-Chloro-3-(4-chloro-phenylethynyl)-phenyl]-1-(3-morpholin-4-yl-propyl)-1,4,6,7-tetrahydro-pyrazolo[4,3-c]pyridin-5-yl]-2-fluoro-ethanone]: the IC50 was 250 nM.
